The subject of data set [1] is palmitic acid-induced lipid accumulation in hiPSC-Hep. As to the kind of experiment: palmitic acid-induced lipid accumulation in hiPSC-Hep. The data set is classed as cell-based, human. The following applies: exogenous palmitic acid. Here is the method: (§1) A monolayer of hiPSC-Hep, with hepatocyte-like morphology, gene expression and function, was used as a cell model for induction of steatosis and high-content analysis to detect neutral lipid droplet accumulation and inhibition. […] Incubation of the cells with a saturated fluorescently labeled fatty acid analog confirmed localization into neutral lipid vacuoles (Supplementary Figure S1C–F).

Data set [2] has as its system oleic acid-induced lipid droplet accumulation in hiPSC-Hep. As to the kind of experiment: oleic acid-induced lipid droplet accumulation in hiPSC-Hep. The following applies: exogenous oleic acid. It counts as cell-based, human. The protocol: as §1
For data set [3], the system named is lipid droplet accumulation in TG/FA-treated hiPSC-Hep. As to the kind of experiment: hiPSC-Hep ER-stress (TG/FA) induced lipid droplet accumulation high-content assay, integrated spot signal (BODIPY 493/503). It counts as cell-based, human. The protocol:
Cryopreserved hiPSC-derived hepatocytes (iCell Hepatocytes 2.0; Cellular Dynamics International Madison, WI) plated at a density of 36 K/well in 384-well on collagen I coated Corning Biocoat 384-well plates (BD Biosciences, 101306), were cultured to promote hepatic differentiation and maturation into hepatic-like cells as previously described. Hepatocytes were plated according to the manufacturer’s protocol in a volume of 50 µL/well using BioTek^TM Microflo^TM select dispenser (#7170011, BioTek Instruments) for high-throughput and high-content analysis assay (HT/HCA) drug discovery. After plating cells were cultured according to vendor specifications in a cell culture incubator at 37 °C, 5% CO2 for 3–4 h. Then, 40 µL spent medium was aspirated using multi-channel automated pipette handling system (Integra ViaFlo 96/384) and replaced with 40 µL (80% exchange) of fresh plating medium. Approximately 24 h post-plating 80% of medium was replaced every day thereafter. At day 5 of differentiation, 40 µL/well spent medium was replaced with maintenance medium (MM) consisting of William’s E medium (Thermo Fisher Scientific) supplemented with 0.1 µM dexamethasone and hepatocyte maintenance supplement pack (Thermo Fisher Scientific) for an additional 2–3 days before HCA. The overview of automated HT system for hiPSC-derived hepatocytes differentiation, staining and image analysis for phenotypic screening is depicted in Figure S2. Primary screening hit confirmation and dose response studies were performed on different batches of hiPSC-derived hepatocytes.
To induce hepatic triglycerides (TAG) accumulation, before staining, cells were treated with 20 μL of 2× FA mixture, consisting of different proportions of oleic acid (OA-BSA, 25 µM, Sigma, #O3008), palmitic acid (PA-BSA, 200 µM, Agilent Technologies, #102720100) and thapsigargin (TG, 1 µM, Abcam, #120286) with a total volume of 40 μL/well. The TG/FA mixture was dispensed with BioTek^TM Microflo^TM select dispenser (#7170011, BioTek Instruments) and incubated for 18 h. Next, to label TAG accumulation stored into cytoplasmic lipid droplets, upon treatment, living cells were washed two times with warm Dulbecco’s Phosphate-Buffered Saline 1X (PBS, Corning, #21-031CV) with a handheld 384-channel electronic pipette device and then incubated for 15 min with a lipophilic dye, BODIPY 493/503 (8 ug/mL Life technologies, #D3922-green), in PBS at 37 °C. BODIPY (493/503) has become the standard dye utilized by scientists to study lipid droplets in live cells. After three washes with PBS cells were fixed with 4% paraformaldehyde methanol-free (PFA, Electron Microscopy Science, #15710) in PBS for 15 min at room temperature (RT). Cell health was monitored by Hoechst 33342 (10 ug/mL, Molecular Probe, #H21492) staining in PBS for nuclear count. After TAG staining the 384-assay plates were loaded in an automated confocal microscope with Opera High Content Imaging System (PerkinElmer, Waltham, MA, USA). Dyes were excited and images were captured on the Hoechst 3342 and Alexa Fluor 488 channels and signals were collected with a long pass filter 410 and 505 nm, for nuclei and TAG, respectively, at objective 20× air objective for HCA. To capture enough cells (>600) for the analysis, eight fields per well were imaged. Hoechst 33342 fluorescence was used to identify the nuclear region and cell counts. To assess intracellular fat deposits, BODIPY 493/503 fluorescence intensity was measured inside the cytoplasm region.
For the HCA screen, compounds tested for their inhibitory effects, were used as single dose at a 10 μM final concentration of compound in DMSO in each well (0.1% DMSO) in 20 μL of maintenance medium. Prior to compound addition, 30 µL/well of medium was removed from hiPSC-Hep cells screening plates with ViaFlo ([…]). Pre-spotted 80 nL of 10 mM compound were diluted to 20 μM (0.2% DMSO) in 40 μL of maintenance medium in the source 384-well plate. […]

The next data set concerns FXR target genes. As to the kind of experiment: transcriptomic (RNA-seq) analysis of OCA pre-incubated TG/FA-treated hiPSC-Hep. It counts as cell-based, human. The following applies: TG/FA+OCA vs TG/FA. Here is the method:
The phenotypic assay was measured and quantified by BODIPY 493/503-stained neutral lipid droplets multiplexed with Hoechst dye to detect viable cell count, as shown by the process in Supplementary Figure S2. Obeticholic acid (OCA), a clinically advanced therapeutic and farnesoid X receptor (FXR) agonist evaluated in phase III trials for the treatment of NASH [40], was used as an inhibitor control of lipid accumulation (Figure 1A). […] Our results are in accordance with therapeutic plasma concentrations of OCA (0.290 µM) and with studies performed in a human liver in vitro system (0.5 µM). […] FXR target genes, including fibroblast growth factor 19 (FGF19), solute carrier family 51 subunit Beta (SLC51B), cytochrome P450 7A1 (CYP7A1) and perilipin 1 (PLIN1) are regulated by OCA under our treatment conditions.
Z’ = 1 − (3 SD of sample group + 3 SD of negative control)/(mean of sample group−mean of negative control). FA/TG-treated wells were defined as general sample group and BSA-treated wells were defined as negative controls for calculating Z’-factor. In our assay, the Z’ criteria were as follows: Z’ = 0.5–1.0 corresponds to an excellent assay; Z’ = 0–0.5 corresponds to a suboptimal assay; Z’ < 0 corresponds to an unsuccessful assay. Percent inhibition of lipid accumulation was calculated based on the positive (BSA-treated) and negative (FA/TG-treated) controls on each plate: % inhibition = 100 * [(compound value–AVEneg)/(AVEpos–AVEneg)]. RNA-seq data were analyzed by iPathwayGuide (Advaita Bioinformatics: http://www.advaitabio.com/ipathwayguide.html) as described in [35]. Differences between two groups were analyzed using Student’s t-tests. Fold-change expression values obtained from RT-qPCR were analyzed by one-way analysis of variance (ANOVA) followed by post hoc comparisons of group means with the Tukey’s multiple comparison tests at an overall confidence level of 95% using Prism software (GraphPad).

Details of data set [4]: method as in PMID 29226620. Particulars: cited from earlier work.
In another data set the test system is DGAT2 mRNA. Further details: method as in PMID 30254132. Particulars: after 4 and 18 h treatment with thapsigargin and free-fatty acids; cited from earlier work.

pIC50: −log10 of the molar value. Like-named read-outs stand apart in the source and are kept apart here.

Turning to `CCC/C=C/C/C=C/C=C/C=N/NN=O` [Triacsin C], the “inhibition of palmitic acid-induced lipid accumulation” value in data set [1] is “did not inhibit”. Also, the entries for the “inhibition of oleic acid-induced lipid droplet accumulation” value in data set [2] and in data set [2] (listed as triacsin C) were “fully inhibits” and “completely inhibits”, respectively.
For the molecule `CC[C@H]1[C@@H](O)[C@@H]2[C@H](CC[C@]3(C)[C@@H]([C@H](C)CCC(=O)O)CC[C@@H]23)[C@@]2(C)CC[C@@H](O)C[C@@H]12` [OCA, Obeticholic acid], the pIC50 in data set [3] (Homo sapiens, cells pre-treated 24 h and co-treated additional 18 h with TG/FA, read-out: half maximal inhibitory concentration (IC50) for reduction of lipid accumulation) was 6.20. For the same molecule, the IC50 in data set [3] (Homo sapiens, cells pre-treated 24 h and co-treated additional 18 h with TG/FA, read-out: pIC50 for reduction of lipid accumulation (converted)) was 0.631 µM. Further, the “lipid content of lipid droplet-stained cells” value in data set [3] (OCA at 20 µM in TG/FA-treated cells vs BSA-treated control) was “reduced lipid content to control levels”. In the data set on FXR target genes, the CYP7A1 gene regulation entry is “downregulation”, the FGF19 gene regulation result is “upregulation”, the PLIN1 gene regulation entry is on record as “upregulation” and the SLC51B gene regulation entry is on record as “downregulation”. Also, in data set [4], the therapeutic plasma concentrations is recorded as 0.290 µM. In the data set on DGAT2 mRNA, the “effect on DGAT2 expression” value is on record as “significantly inhibited”.

Values taken from PMC7765409 (International Journal of Molecular Sciences, 2020).
